What was measured:
[1] = system: THP-1
Description: Normalization. […] After normalization, the controls were discarded.

[2] = system: HL-60 disseminated xenograft; experiment: HL-60 disseminated xenograft model, survival; type: in vivo, female mice CB-17 SCID; conditions: MLN4924 180 mg/kg and/or azacitidine 10 mg/kg s.c. on days 22, 25, 29, 32, 36, 39; for Mean survival time: Vehicle 48.1
Description: Test subjects. […] On day 20 post-inoculation, mice were randomized into groups of 10. Starting on day 22, mice were dosed subcutaneously with vehicle, 180 mg/kg MLN4924, 10 mg/kg azacitidine, or the combination of 180 mg/kg MLN4924 and 10 mg/kg azacitidine, using the same twice-weekly schedule as described in the subcutaneous xenograft experiments (dosing on days 22, 25, 29, 32, 36, 39). The mice were monitored at least twice weekly for body weight loss and signs of disease, including paresis or paralysis of hind limbs and emergence of palpable and internal solid tumors. The day on which an animal died or was sacrificed due to disease burden was recorded.
To determine synergy in the survival times, the mean survival times and corresponding standard errors were computed for each treatment group.

[3] = system: HL60 subcutaneous xenograft tumors; experiment: HL-60 subcutaneous xenograft model, tumor growth and synergy; conditions: s.c. Days 1, 4, 8, 11, 15 and 18; FIG. 2
[4] = system: THP-1 subcutaneous xenograft tumors; experiment: THP-1 subcutaneous xenograft model, tumor growth and synergy; conditions: s.c. Days 1, 4, 8, 11, 15 and 18; FIG. 3
[5] = system: OCI-M2 subcutaneous xenograft tumors; experiment: OCI-M2 subcutaneous xenograft model, tumor growth and synergy; conditions: s.c. Days 1, 4, 8, 11, 15 and 18; FIG. 4

Row | Compound | single agent activity [1] | extension of mean survival time compared to the control group [2] [days] | Mean survival time [2] [days] | effect on tumor growth [3] | effect on tumor growth [4] | effect on tumor growth [5]
1 | Nc1ncn([C@H]2C[C@H](O)[C@@H](CO)O2)c(=O)n1 [decitabine, 4-amino-1-(2-deoxy-β-D-erythropentofuranosyl)-1,3,5-triazin-2(1H)-one] | lack of single agent activity | – | – | – | – | –
2 | Nc1ncn([C@@H]2O[C@H](CO)[C@@H](O)[C@H]2O)c(=O)n1 [azacitidine, 4-amino-1-β-D-ribofuranosyl-s-triazin-2(1H)-one] | – | 21.1 | 69.2 | marginal effect on tumor growth | marginal effect on tumor growth | inhibited tumor growth
3 | NS(=O)(=O)OC[C@@H]1C[C@@H](n2ccc3c(N[C@H]4CCc5ccccc54)ncnc32)C[C@@H]1O [MLN4924, ((1S,2S,4R)-4-(4-((1S)-2,3-dihydro-1H-inden-1-ylamino)-7H-pyrrolo[2,3-d]-pyrimidin-7-yl)-2-hydroxycyclopentyl)methyl sulfamate] | – | 8.4 | 56.5 | marginal effect on tumor growth | inhibited tumor growth | inhibited tumor growth

From patent US8980850B2, “Administration of a NEDD8-activating enzyme inhibitor and hypomethylating agent” (Millennium Pharmaceuticals, Inc., priority 2011, dated 2015)
